# Experimental data taken from ChEMBL document CHEMBL1201862, “PubChem BioAssay data set” (2004).
#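 These data come from cells grown in 96-well plates and exposed to compound for 48 hours at five concentrations. Here, GI50 denotes the concentration required for 50% inhibition of growth.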 The source made the active and inactive calls. Rule as the data show it: active = GI50 up to about 1.1 µM and inactive = higher.
# Tests used:
# Experiment in all cases: DTP human tumour cell line panel, 48 h
# [1] = system: CAKI-1
# [2] = system: RPMI-8226
# [3] = system: MDA-N
# [4] = system: LOX IMVI
# [5] = system: OVCAR-3
# [6] = system: SK-MEL-5
# [7] = system: OVCAR-4
# [8] = system: CCRF-CEM
# [9] = system: SK-OV-3
# [10] = system: HL-60
# [11] = system: 786-0
# [12] = system: UACC-62
# [13] = system: T47D
# [14] = system: RXF 393
# [15] = system: ACHN
# [16] = system: SNB-75
# [17] = system: SK-MEL-2
# [18] = system: MDA-MB-231
# [19] = system: SF-539
# [20] = system: HT-29
SMILES,GI50 [1],GI50 [2],GI50 [3],GI50 [4],GI50 [5],GI50 [6],GI50 [7],GI50 [8],GI50 [9],GI50 [10],GI50 [11],GI50 [12],GI50 [13],GI50 [14],GI50 [15],GI50 [16],GI50 [17],GI50 [18],GI50 [19],GI50 [20]
COc1ccc2nc3n(c2c1)C(c1c(Cl)cccc1Cl)SC3 (configuration not stated),> 100 µM (inactive),> 100 µM (inactive),87.9 µM (inactive),> 100 µM (inactive),> 100 µM (inactive),> 100 µM (inactive),24.7 µM (inactive),> 100 µM (inactive),> 100 µM (inactive),> 100 µM (inactive),> 100 µM (inactive),> 100 µM (inactive),> 100 µM (inactive),> 100 µM (inactive),> 100 µM (inactive),> 100 µM (inactive),> 100 µM (inactive),,,
CN(C)CCCNC(=O)N/N=C/c1ccc(O)cc1,> 100 µM (inactive),,> 100 µM (inactive),,> 100 µM (inactive),> 100 µM (inactive),,> 100 µM (inactive),> 100 µM (inactive),> 100 µM (inactive),> 100 µM (inactive),> 100 µM (inactive),> 100 µM (inactive),,> 100 µM (inactive),59.2 µM (inactive),> 100 µM (inactive),> 100 µM (inactive),> 100 µM (inactive),> 100 µM (inactive)
COc1cccc2c1C(=O)c1c(O)c3c(c(O)c1C2=O)CC(O)(C(O)CO)CC3OC1CC(N2CCOCC2)C(O)C(C)O1 (configuration not stated),0.00175 µM (active),0.00378 µM (active),0.0143 µM (active),,0.0023 µM (active),0.00223 µM (active),0.00337 µM (active),0.00849 µM (active),0.00362 µM (active),,0.0277 µM (active),< 0.001 µM (active),,0.0155 µM (active),0.00193 µM (active),0.00388 µM (active),0.00422 µM (active),0.0165 µM (active),0.0043 µM (active),0.00308 µM (active)
CN(C)c1ccc(-c2c(C#N)c(-c3ccccc3)n(NS(=O)(=O)c3ccccc3)c(=O)c2C#N)cc1,45.7 µM (inactive),21.3 µM (inactive),68.1 µM (inactive),37.4 µM (inactive),,20.4 µM (inactive),> 100 µM (inactive),26.5 µM (inactive),67.3 µM (inactive),,69.5 µM (inactive),43.3 µM (inactive),,44 µM (inactive),45.8 µM (inactive),48.5 µM (inactive),41.6 µM (inactive),88.1 µM (inactive),33.3 µM (inactive),76.7 µM (inactive)
